Reference: patent US20250368633A1, “AZEPINE FUSED RING COMPOUND AS RIPK1 INHIBITOR AND USE THEREOF” (ARTIVILA BIOPHARMA, priority 2022, published 2025)

What was measured:
[1] = system: U937 cells; experiment: EC50 of necroptosis inhibition in U937 cells (TSZ-induced, CellTiter-Glo); assay type: cell-based; conditions: Homo sapiens, U-937; TSZ (hTNF-α, SM-164, Z-VAD-FMK) 20 hours; 10 concentration points; read-out: EC50 intervals of necroptosis inhibition in U937 cells
Method in brief: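 Luminescent ATP readout (CellTiter-Glo) after 20 h gave viability of TSZ-challenged U937 cells; compounds were added 15 min ahead of TNF-α/SM-164/Z-VAD-FMK. EC50 derived by variable-slope nonlinear regression of inhibition relative to no-TSZ and TSZ-alone controls.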

[2] = molecular target: T1, RIPK1 kinase (Homo sapiens, UniProt Q13546); experiment: In vitro RIPK1 kinase activity IC50 assay (ADP-Glo); assay type: biochemical; conditions: ATP 10 μM; MBP substrate 100 μg/mL; 8 concentration points; read-out: IC50 range of compounds for RIPK1 kinase activity
T1 construct: purchased Promega VA7593
T1 sequence (Q13546 1-671): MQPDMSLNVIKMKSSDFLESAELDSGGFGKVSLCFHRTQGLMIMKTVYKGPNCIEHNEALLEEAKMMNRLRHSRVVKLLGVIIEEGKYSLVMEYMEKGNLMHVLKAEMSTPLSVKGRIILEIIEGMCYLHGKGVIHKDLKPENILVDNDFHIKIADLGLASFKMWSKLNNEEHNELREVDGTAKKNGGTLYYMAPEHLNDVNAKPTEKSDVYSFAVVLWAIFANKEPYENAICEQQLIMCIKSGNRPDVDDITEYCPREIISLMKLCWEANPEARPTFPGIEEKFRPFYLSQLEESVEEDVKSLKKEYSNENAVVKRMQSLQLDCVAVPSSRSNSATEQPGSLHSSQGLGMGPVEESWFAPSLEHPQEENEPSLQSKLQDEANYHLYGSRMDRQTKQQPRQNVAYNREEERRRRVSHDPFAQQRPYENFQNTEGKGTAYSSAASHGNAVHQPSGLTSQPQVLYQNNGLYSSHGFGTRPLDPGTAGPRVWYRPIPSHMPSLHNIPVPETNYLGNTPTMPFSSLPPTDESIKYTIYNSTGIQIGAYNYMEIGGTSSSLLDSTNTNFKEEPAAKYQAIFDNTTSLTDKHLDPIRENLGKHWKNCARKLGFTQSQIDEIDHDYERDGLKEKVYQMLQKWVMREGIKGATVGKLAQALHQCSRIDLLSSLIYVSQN
Protocol: RIPK1 kinase activity was assayed using the ADP-Glo assay and RIPK1 kinase reaction system (Promega, catalog number: VA7593). The RIPK1 kinase activity assay was performed according to the Promega kit manual.
The experimental method was briefly described as below. The concentration of RIPK1 kinase in the RIPK1 kinase reaction system was determined by kinase titration and S/B10. The compound was diluted with 1× kinase buffer D (1% DMSO), 1 μL of 1 mM compound DMSO stock solution was added to 19 μL 1× kinase buffer D, and the compound was serially diluted with 1× kinase buffer D at a ratio of 1:5, for a total of 8 concentration points, and a control with the same DMSO volume was set. RIPK1 kinase was diluted with 1× kinase buffer D. 2.5×ATP/substrate was diluted with 1× kinase buffer D. The final concentration of ATP in the kinase reaction system was 10 μM. The final concentration of MBP substrate was 100 μg/mL. 1 μL of diluted compound and 2 μL of diluted RIPK1 kinase were mixed, incubated at room temperature for 15 minutes, 2 μL of 2.5×ATP/substrate was added, mixed, and incubated at room temperature for 1 hour. 5 μL ADP-Glo reagent was added to each well and incubated at room temperature for 1 hour. 10 μL ADP detection reagent was added to each well and incubated at room temperature for another 0.5-1 hour. The chemiluminescent signal was read with a microplate reader and the kinase activity inhibition rate was calculated. IC50 was obtained by fitting the nonlinear regression curve log [inhibitor] vs. response-variable slope (four parameters) in GraphPad Prism.

IC50 [2] | SMILES | EC50 [1]
< 100 nM | CN1C(=O)[C@@H](NC(=O)C(=O)NCCc2ccccc2)COc2ccc(C#Cc3ccsc3)cc21 [Example 17, (S)—N^1-(5-methyl-4-oxo-7-(thiophen-3-ylethynyl)-2,3,4,5-tetrahydrobenzo[b][1,4]oxazepin-3-yl)-N^2-phenethyloxalamide] | < 100 nM
< 100 nM | CN1C(=O)[C@@H](NC(=O)C(=O)NCCc2ccccc2)COc2ccc(C#C[Si](C)(C)C)cc21 [Example 18, (S)—N^1-(5-methyl-4-oxo-7-((trimethylsilyl)ethynyl)-2,3,4,5-tetrahydrobenzo[b][1,4]oxazepin-3-yl)-N^2-phenethyloxalamide] | < 100 nM
< 100 nM | CC#Cc1ccc2c(c1)N(C)C(=O)[C@@H](NC(=O)C(=O)NCCc1ccccc1)CO2 [Example 19, (S)—N^1-(5-methyl-4-oxo-7-(prop-1-yn-1-yl)-2,3,4,5-tetrahydrobenzo[b][1,4]oxazepin-3-yl)-N^2-phenethyloxalamide] | < 100 nM
< 100 nM | CN1C(=O)[C@@H](NC(=O)C(=O)NCCc2ccccc2)COc2ccc(C#CC3CCOCC3)cc21 [Example 21, (S)—N^1-(5-methyl-4-oxo-7-((tetrahydro-2H-pyran-4-yl)ethynyl)-2,3,4,5-tetrahydrobenzo[b][1,4]oxazepin-3-yl)-N^2-phenethyloxalamide] | < 100 nM
< 100 nM | CN1C(=O)[C@@H](NC(=O)C(=O)NCCc2ccccc2)COc2ccc(C#Cc3cnn(C)c3)cc21 [Example 22, (S)—N^1-(5-methyl-7-((1-methyl-1H-pyrazol-4-yl)ethynyl)-4-oxo-2,3,4,5-tetrahydrobenzo[b][1,4]oxazepin-3-yl)-N^2-phenethyloxalamide] | < 100 nM
< 100 nM | CN1C(=O)[C@@H](NC(=O)C(=O)NCCc2ccccc2)COc2ccc(C#CC(C)(C)O)cc21 [Example 29, (S)—N^1-(7-(3-hydroxy-3-methylbut-1-yn-1-yl)-5-methyl-4-oxo-2,3,4,5-tetrahydrobenzo[b][1,4]oxazepin-3-yl)-N^2-phenethyloxalamide] | < 100 nM
< 100 nM | CN1C(=O)[C@@H](NC(=O)C(=O)NCCc2ccccc2)COc2ccc(C#CCCO)cc21 [Example 31, (S)—N^1-(7-(4-hydroxybut-1-yn-1-yl)-5-methyl-4-oxo-2,3,4,5-tetrahydrobenzo[b][1,4]oxazepin-3-yl)-N^2-phenethyloxalamide] | < 100 nM

Second part, the compound before the results:

SMILES | IC50 [2] | EC50 [1]
CC(Cc1ccccc1)NC(=O)C(=O)N[C@H]1COc2ccc(C#CCCO)cc2N(C)C1=O (mixture of isomers) [Example 37, N^1-((S)-7-(4-hydroxybut-1-yn-1-yl)-5-methyl-4-oxo-2,3,4,5-tetrahydrobenzo[b][1,4]oxazepin-3-yl)-N^2-(1-phenylpropan-2-yl)oxalamide] | < 100 nM | 100 to 500 nM
CC(NC(=O)C(=O)N[C@H]1COc2ccc(C#CCCO)cc2N(C)C1=O)c1ccccc1 (mixture of isomers) [Example 41, N^1-((S)-7-(4-hydroxybut-1-yn-1-yl)-5-methyl-4-oxo-2,3,4,5-tetrahydrobenzo[b][1,4]oxazepin-3-yl)-N^2-(1-phenylethyl)oxalamide] | < 100 nM | < 100 nM
CN1CCC(CC#Cc2ccc3c(c2)N(C)C(=O)[C@@H](NC(=O)C(=O)NCCc2ccccc2)CO3)C1=O (mixture of isomers) [Example 82, N^1-((3S)-5-methyl-7-(3-(1-methyl-2-oxopyrrolidin-3-yl)prop-1-yn-1-yl)-4-oxo-2,3,4,5-tetrahydrobenzo[b][1,4]oxazepin-3-yl)-N^2-phenethyloxalamide] | < 100 nM | < 100 nM
CN1C(=O)[C@@H](NC(=O)C(=O)NCCc2cccc(F)c2)COc2ccc(C#CCN3CCC(O)C3)cc21 (mixture of isomers) [Example 113, N^1-(3-fluorophenethyl)-N^2-((3S)-7-(3-(3-hydroxypyrrolidin-1-yl)prop-1-yn-1-yl)-5-methyl-4-oxo-2,3,4,5-tetrahydrobenzo[b][1,4]oxazepin-3-yl)oxalamide] | < 100 nM | < 100 nM
C[C@@H](NC(=O)C(=O)N[C@H]1COc2ccc(C#CCN3CCC(O)C3)cc2N(C)C1=O)c1ccccc1 (mixture of isomers) [Example 126, N^1-((3S)-7-(3-(3-hydroxypyrrolidin-1-yl)prop-1-yn-1-yl)-5-methyl-4-oxo-2,3,4,5-tetrahydrobenzo[b][1,4]oxazepin-3-yl)-N^2-((R)-1-phenylethyl)oxalamide] | < 100 nM | < 100 nM
CC(CNC(=O)C(=O)N[C@H]1COc2ccc(C#CCCO)cc2N(C)C1=O)c1ccccc1 (mixture of isomers) [Example 154, N^1-((S)-7-(4-hydroxybut-1-yn-1-yl)-5-methyl-4-oxo-2,3,4,5-tetrahydrobenzo[b][1,4]oxazepin-3-yl)-N^2-(2-phenylpropyl)oxalamide] | < 100 nM | < 100 nM
CN1C(=O)[C@@H](NC(=O)C(=O)NCCc2ccccc2)COc2ccc(C#Cc3cccnc3)cc21 [Example 13, (S)—N^1-(5-methyl-4-oxo-7-(pyridin-3-ylethynyl)-2,3,4,5-tetrahydrobenzo[b][1,4]oxazepin-3-yl)-N^2-phenethyloxalamide] | < 100 nM | < 100 nM
CN1C(=O)[C@@H](NC(=O)C(=O)NCCc2ccccc2)COc2ccc(C#CC3CCCNC3)cc21 (stereo partly drawn) [Example 24, N^1-((3S)-5-methyl-4-oxo-7-(piperidin-3-ylethynyl)-2,3,4,5-tetrahydrobenzo[b][1,4]oxazepin-3-yl)-N^2-phenethyloxalamide] | < 100 nM | < 100 nM
CN1C(=O)[C@@H](NC(=O)C(=O)NCCc2ccccc2)COc2ccc(C#Cc3cnc4cccnn34)cc21 [Example 25, (S)—N^1-(7-(imidazo[1,2-b]pyridazin-3-ylethynyl)-5-methyl-4-oxo-2,3,4,5-tetrahydrobenzo[b][1,4]oxazepin-3-yl)-N^2-phenethyloxalamide] | < 100 nM | < 100 nM
CN1C(=O)[C@@H](NC(=O)C(=O)NCc2ccccc2)COc2ccc(C#CCCO)cc21 [Example 32, (S)—N^1-benzyl-N^2-(7-(4-hydroxybut-1-yn-1-yl)-5-methyl-4-oxo-2,3,4,5-tetrahydrobenzo[b][1,4]oxazepin-3-yl)oxalamide] | < 100 nM | < 100 nM
CN1C(=O)[C@@H](NC(=O)C(=O)NCCc2ccccc2F)COc2ccc(C#CCCO)cc21 [Example 33, (S)—N^1-(2-fluorophenethyl)-N^2-(7-(4-hydroxybut-1-yn-1-yl)-5-methyl-4-oxo-2,3,4,5-tetrahydrobenzo[b][1,4]oxazepin-3-yl)oxalamide] | < 100 nM | < 100 nM
CN1C(=O)[C@@H](NC(=O)C(=O)NCCc2cccc(F)c2)COc2ccc(C#CCCO)cc21 [Example 34, (S)—N^1-(3-fluorophenethyl)-N^2-(7-(4-hydroxybut-1-yn-1-yl)-5-methyl-4-oxo-2,3,4,5-tetrahydrobenzo[b][1,4]oxazepin-3-yl)oxalamide] | < 100 nM | < 100 nM
CN1C(=O)[C@@H](NC(=O)C(=O)NCCc2ccc(F)cc2)COc2ccc(C#CCCO)cc21 [Example 35, (S)—N^1-(4-fluorophenethyl)-N^2-(7-(4-hydroxybut-1-yn-1-yl)-5-methyl-4-oxo-2,3,4,5-tetrahydrobenzo[b][1,4]oxazepin-3-yl)oxalamide] | < 100 nM | 100 to 500 nM
